Experimental data taken from publication PMC9917099, “The Mycotoxin Patulin Inhibits the Mitochondrial Carnitine/Acylcarnitine Carrier (SLC25A20) by Interaction with Cys136 Implications for Human Health” (International Journal of Molecular Sciences, 2023).
Positions count from the first letter of the chain named. pIC50: −log10 of the molar value. Several values for one entry are separate records, joined by “and”; a condition that tells them apart may be missing. Equal values may be shown once.

Tests used:
Type in all cases: biochemical
[1] = target: T1, rat CAC mutant C23V/C58V/C89S/C155V/C283S (Rattus norvegicus, UniProt P97521, C155V/C23V/C283S/C58V/C89S); assay: Carnitine antiport in proteoliposomes, CAC mutant containing only C136
T1 construct: made in house; host or cells: E. coli C0214 (pMW7, inclusion bodies)
T1 sequence (P97521 1-301 C23V/C58V/C89S/C155V/C283S): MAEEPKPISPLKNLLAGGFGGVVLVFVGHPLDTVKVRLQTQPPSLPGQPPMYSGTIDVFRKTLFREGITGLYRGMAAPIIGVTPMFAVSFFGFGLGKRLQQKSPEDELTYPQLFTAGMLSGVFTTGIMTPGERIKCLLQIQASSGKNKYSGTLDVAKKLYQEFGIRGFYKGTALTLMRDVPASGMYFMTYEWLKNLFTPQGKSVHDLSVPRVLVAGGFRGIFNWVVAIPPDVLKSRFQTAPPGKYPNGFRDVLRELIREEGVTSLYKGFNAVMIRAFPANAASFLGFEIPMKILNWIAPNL
Method: (§1) To shed light on the interaction between PAT and CAC and verify if specific Cys residues were involved, transport experiments on the recombinant rat and human WT CAC and CAC’s rat Cys mutants were performed. As in the case of the native protein, transport activities were measured as [^3H]-carnitine/carnitine antiport in proteoliposomes. […] The PAT inhibition of the WT recombinant protein was only slightly greater compared to the native protein, although compounds and other molecular systems that affect the mycotoxin binding to the native CAC were absent (see above). For identifying the residues involved in the PAT interaction, site-directed Cys mutants were tested for inhibition (Figure 2). […]
(§2) Figure 2 Dose-response analysis of the PAT inhibition of the CAC recombinant proteins. […] The data are expressed as a percentage of the controls (no PAT addition) and are means ± SD of three independent experiments. […]
(§3) For the transport assay, 550 μL of proteoliposomes were passed through a Sephadex G-75 column in order to remove the external substrate. […] After finishing the transport reaction, the external radiolabel substrate was removed by gel filtration chromatography (Sephadex G-75), and the intraliposomal radioactivity was measured by liquid scintillation. Transport was measured at 25 °C. […] Transport rates were measured in 10 min, i.e., within the initial linear range of the time course.

recombinant rat WT CAC = target: T2, recombinant rat WT CAC (Rattus norvegicus, UniProt P97521); assay: [3H]-carnitine/carnitine antiport in proteoliposomes with recombinant rat WT CAC
T2 construct: made in house; host or cells: E. coli C0214 (pMW7, inclusion bodies)
T2 sequence (P97521 1-301): T1 sequence (P97521 1-301 C23V/C58V/C89S/C155V/C283S) with V23C, V58C, S89C, V155C, S283C
Method: To shed light on the interaction between PAT and CAC and verify if specific Cys residues were involved, transport experiments on the recombinant rat and human WT CAC and CAC’s rat Cys mutants were performed. As in the case of the native protein, transport activities were measured as [^3H]-carnitine/carnitine antiport in proteoliposomes. […] The PAT inhibition of the WT recombinant protein was only slightly greater compared to the native protein, although compounds and other molecular systems that affect the mycotoxin binding to the native CAC were absent (see above). For identifying the residues involved in the PAT interaction, site-directed Cys mutants were tested for inhibition (Figure 2). […] The choice of this last mutant was due to the proximity of C155 to C136 during some steps of the substrate translocation mechanism. […] To confirm the main role played by C136 in the carrier PAT-induced impairment, the single mutant C155S and the mutant containing only C136 residue (C23V/C58V/C89S/C155V/C283S) were examined (Figure 2). […] Finally, no effect of the mycotoxin was observed on the C-less mutant (C23V/C58V/C89S/C136V/C155V/C283S), definitively excluding the participation of other residues in the interaction with PAT.
Figure 2 Dose-response analysis of the PAT inhibition of the CAC recombinant proteins. […] The data are expressed as a percentage of the controls (no PAT addition) and are means ± SD of three independent experiments.
The pMW7-WT rat or human CAC recombinant plasmids were used for over-expressing the rat and human CAC, as previously described. To introduce the mutations on the rat CAC recombinant plasmid, the overlap extension method was used as described, introducing the NdeI and HindIII restriction sites. The PCR products were purified using the QIAEX II Gel Extraction Kit (QIAGEN, Hilden, Germany), digested with NdeI and HindIII, and then ligated into the pMW7. All mutations were verified by DNA sequencing. The resulting plasmid constructs were transformed into E. coli C0214. Overexpression, inclusion body fraction preparation, and purification of the CAC proteins were performed as previously described.
The recombinant CAC proteins were reconstituted in proteoliposomes as previously described. […]
as §3

rat CAC mutant C136S = target: T3, rat CAC mutant C136S (Rattus norvegicus, UniProt P97521, C136S); assay: Carnitine antiport in proteoliposomes, CAC mutant C136S
T3 construct: made in house; host or cells: E. coli C0214 (pMW7, inclusion bodies)
T3 sequence (P97521 1-301 C136S): T1 sequence (P97521 1-301 C23V/C58V/C89S/C155V/C283S) with V23C, V58C, S89C, C136S, V155C, S283C
Method: as §1, §2, §3

O=C1C=C2C(=CCOC2O)O1 (stereo not drawn) [PAT, 4-hydroxy-4H-furo [3,2c] pyran-2 [6H] -one]
IC50 [1]: comparable to the WT | reversal of inhibition by DTE (recombinant rat WT CAC; 50 μM PAT 30 min, 5 mM DTE, recombinant WT): not reversed | substrate protection: effect of carnitine on PAT inhibition (recombinant rat WT CAC; carnitine 0.5 and 10 mM added before 50 μM PAT): partially prevented | type of inhibition (recombinant rat WT CAC; protein form not specified): competitive | pIC50 (recombinant rat WT CAC; rat recombinant WT, PAT 30 min, read-out: IC50 of CAC WT inhibition): 4.33 and ~4.30 | IC50 (rat CAC mutant C136S): not possible to detect
